For this series the following is noted: 298.15 K; 101.33 kPa; Crystal; PPMS instrument (Quantum Design).

± gives the expanded uncertainty stated by the source.

Regarding `O=P([O-])([O-])[O-].[Gd+3]` [gadolinium orthophosphate], the molar entropy is 124.57 ± 5.6 J/K/mol.

As for `O=P([O-])([O-])[O-].[La+3]` [lanthanum orthophosphate], the molar entropy came out at 108.24 ± 4.9 J/K/mol.
